“And” between values parts separate entries of the source, which are not always exact repeats. Identical values can stand only once. Like-named read-outs stand apart in the source and are kept apart here. Numbered stars: 1 amine (or outer) side, 2 acyl side, 3 side chain; on linkers, the order of the positions; unused ones are H or OH. Bridge positions count the residues as written; N and C are the ends. Square brackets hold non-standard residues; d marks the D form. Peptide text beside a SMILES is read from it. I, II: the chains in the order shown. Actinocin(9to1) = Cc1c2oc3c(C)ccc(C(=O)[*:1])c3nc-2c(C(=O)[*:2])c(N)c1=O; dHica = CC(C)C[C@@H](O)C(=O)O; NMeV = CN[C@H](C(=O)O)C(C)C; NMeA = CN[C@@H](C)C(=O)O; βAla = NCCC(=O)O; Sar = CNCC(=O)O
Biological target: T1, P2X7 (Homo sapiens, UniProt Q99572)
T1 construct: expressed in transfected cells
T1 sequence (Q99572 1-595): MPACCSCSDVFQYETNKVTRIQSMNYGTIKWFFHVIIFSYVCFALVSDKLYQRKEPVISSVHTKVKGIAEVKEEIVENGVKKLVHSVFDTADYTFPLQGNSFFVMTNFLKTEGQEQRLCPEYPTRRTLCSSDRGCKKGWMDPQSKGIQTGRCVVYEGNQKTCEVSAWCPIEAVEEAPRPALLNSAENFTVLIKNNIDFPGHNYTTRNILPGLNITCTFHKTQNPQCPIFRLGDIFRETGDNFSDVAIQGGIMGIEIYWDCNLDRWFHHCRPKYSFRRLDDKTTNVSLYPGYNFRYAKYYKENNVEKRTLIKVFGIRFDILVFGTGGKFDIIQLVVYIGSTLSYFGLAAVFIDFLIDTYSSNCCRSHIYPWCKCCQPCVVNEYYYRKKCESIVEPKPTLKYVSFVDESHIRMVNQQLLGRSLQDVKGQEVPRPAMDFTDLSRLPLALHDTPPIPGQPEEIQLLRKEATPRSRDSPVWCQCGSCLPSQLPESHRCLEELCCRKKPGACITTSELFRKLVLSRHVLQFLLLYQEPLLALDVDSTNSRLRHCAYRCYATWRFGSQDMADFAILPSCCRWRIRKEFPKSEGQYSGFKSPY
Assay: ATP-induced YO-PRO-1 dye uptake in HEK-hP2X7 cells
Assay type: cell-based
Settings: for P2X7 response (% of control): compound 10 µM injected 60 s before ATP; for Effect on ATP-mediated YO-PRO-1 uptake: 10 µM, 10 min pre-incubation; for Effect on YO-PRO-1 uptake at high concentrations: > 30 µM, HEK-hP2X7; for Mechanism of action from ATP concentration–response curve: compound 10 µM
Method: HEK-hP2X7 or HEK-hP2X4 cells were plated at 2.5 × 10^4 cells per well (100 µL volume) the day before experiments into poly-D-lysine (Merck Millipore) coated 96-well plates (NUNC, Fisher Scientific #167-008). The membrane impermeant dye YO-PRO-1 iodide (Life Technologies, Fisher Scientific) was used at a final concentration of 2 µM in low divalent buffer (145 mM NaCl, 5 mM KCl, 0.2 mM CaCl2, 13 mM glucose, 10 mM HEPES, pH 7.3, osm 300–310). Media were removed from the plate, and 90 µL of YO-PRO-1 buffer was added per well. Plates were warmed to 37 °C for 5 min before recording. Data was acquired on a Flexstation 3 plate reader (Molecular Devices) using excitation wavelength 490 nm, emission wavelength 520 nm, and six reads per well (PMT medium). […] […] Pipette height was set to 80 µL and the rate of injection was 4.
YO-PRO-1 dye uptake assay data is plotted as a percentage of control where control responses are measured in the absence of plant extract. Cell viability data is plotted as a percentage of control or background-corrected fluorescence data. Concentration–response graphs were plotted using GraphPad Prism v6 with a non-linear regression fit (variable slope). IC50 values were generated from collated datasets from a minimum of three independent experiments. Statistical differences were determined by one-way ANOVA statistical tests performed using GraphPad Prism v6 with Dunnett’s multiple comparison post hoc test. Significance was taken as P ≤ 0.05.
We acquired a natural product library (Set IV) containing 419 compounds from NCI DTP and tested these on P2X7 responses using a YO-PRO-1 dye uptake in HEK293 cells stably expressing human P2X7 (HEK-hP2X7). […] This allowed us to assess for any immediate effect of the injected compound, and secondly, it allowed for any potential negative modulators to be pre-incubated with P2X7.

[1] = HEK-hP2X7, 10 min pre-treatment, ATP 1 mM, read-out: IC50 value (95% CI)
[2] = screen for potential negative allosteric modulators
[3] = HEK-hP2X7, NCI Natural Product Set IV compounds, Fig. 1F, read-out: IC50 (dose inhibition experiments)

Row | SMILES | P2X7 response (% of control) (screen for PAM activity) | P2X7 response (% of control) [2] | other results
1 | Nc1nc(=O)c2c([nH]1)NCC(CNc1ccc(C(=O)N[C@@H](CCC(=O)O)C(=O)O)cc1)N2C=O (mixture of isomers) [Folinic acid, reference compound] | 160.00 % of control | – | –
2 | Nc1ncnc2c1ncn2[C@@H]1O[C@H](COP(=O)(O)OP(=O)(O)OP(=O)(O)O)[C@@H](O)[C@H]1O [ATP, reference compound] | – | – | EC50 (ATP with vehicle (DMSO), no modulator): 131 µM and 110 µM
3 | O=C1CSC(=O)N1C(CCc1ccncc1)COc1ccc(-c2cccc([N+](=O)[O-])c2)cc1 (centres unmarked) [AZ11645373, reference compound] | – | – | IC50 [1]: 0.153 µM
4 | COc1cc(Cc2nccc3cc(OC)c(OC)cc23)c(C(C)=O)cc1OC [Acetopapaverine] | – | 34.92 % of control | –
5 | COc1cc2c(c3c1c(=O)c1ccccc1n3C)C=CC(C)(C)O2 [Acronine] | – | 1.05 % of control | Effect on ATP-mediated YO-PRO-1 uptake (ATP 1 mM): able to reduce ATP-mediated YO-PRO-1 uptake
6 | Cc1c2oc3c(C)ccc(C(=O)N[C@@H]4C(=O)N[C@H](C(C)C)C(=O)N5CCC[C@H]5C(=O)N(C)CC(=O)N(C)[C@@H](C(C)C)C(=O)O[C@@H]4C)c3nc-2c(C(=O)N[C@@H]2C(=O)N[C@H](C(C)C)C(=O)N3CCC[C@H]3C(=O)N(C)CC(=O)N(C)[C@@H](C(C)C)C(=O)O[C@@H]2C)c(N)c1=O [Actinomycin] (I: T[dV]P[Sar][NMeV] / II: T[dV]P[Sar][NMeV]; ester I:1-I:C, II:1-II:C; linker I:N-II:N via Actinocin(9to1)) | 188.44 % of control | – | –
7 | COc1cc([C@@H]2c3cc4c(cc3C[C@H]3COC(=O)[C@@H]32)OCO4)cc(OC)c1OC [Anthricin] | – | 30.94 % of control | –
8 | NC(=O)C#CC(N)=O [Aquamycin] | – | 15.18 % of control | –
9 | CC(=O)O[C@H]1C(=O)[C@@]2(C)[C@H]([C@H](OC(=O)c3ccccc3)[C@]3(O)C[C@H](O)C(C)=C1C3(C)C)[C@]1(OC(C)=O)CO[C@@H]1C[C@@H]2O [Baccatin III] | 136.25 % of control | – | –
10 | COc1c2ccoc2cc2oc(=O)ccc12 [Bergapten] | – | – | Effect on YO-PRO-1 uptake at high concentrations: reduction of YO-PRO-1 uptake in hP2X7 cells at high concentrations
11 | C[C@@H]1C[C@H](C)C[C@H](C)[C@@H](O)CC(=O)O[C@H]([C@@H]2CCC[C@H]2C(=O)O)C/C=C/C=C(/C#N)[C@H](O)[C@@H](C)C1 [Borrelidin] | – | 42.93 % of control | –
12 | C[C@H]1Oc2cc3c(-c4c(O)cc(O)c5c(O)c6c(cc45)O[C@H](C)[C@@H](C)C6=O)c(O)cc(O)c3c(O)c2C(=O)[C@@H]1C [Chaetochromin A] | – | 12.08 % of control | –
13 | CC[C@H](C)C(=O)O[C@H]1CCC=C2C=C[C@H](C)[C@H](CC[C@@H](O)C[C@@H](O)CC(=O)O)[C@H]21 [Compactin] | 139.71 % of control | – | –
14 | CC1(C)CCC[C@]2(C)C3=C(CC[C@@H]12)C(=O)OC3 [Confertifolin] | – | 9.72 % of control | Effect on ATP-mediated YO-PRO-1 uptake (ATP 1 mM): able to reduce ATP-mediated YO-PRO-1 uptake; IC50 [3]: 3.86 µM; Mechanism of action from ATP concentration–response curve: potential non-competitive mechanism of action
15 | C/C=C/C(=O)O [Crotonic acid] | 142.15 % of control | – | –
16 | COc1cc(/C=C/C(=O)CC(=O)/C=C/c2ccc(O)c(OC)c2)ccc1O [Curcumin] | 144.58 % of control | – | –
17 | CC[C@H](C)[C@@H]1NC(=O)[C@@H]2CCCN2C(=O)[C@@H](CC(C)C)OC(=O)CCNC(=O)[C@H](C)N(C)C(=O)[C@H](C(C)C)N(C)C1=O [Destrusin B] (cyclo([dHica]PI[NMeV][NMeA][βAla])) | – | 46.65 % of control | –
18 | O=C(O)c1cc(O)c(O)c(OC(=O)c2cc(O)c(O)c(O)c2)c1 [Digallic acid] | – | 0 % of control | Effect on ATP-mediated YO-PRO-1 uptake (ATP 1 mM): able to reduce ATP-mediated YO-PRO-1 uptake; IC50 [3]: 4.05 µM; Mechanism of action from ATP concentration–response curve: potential non-competitive mechanism of action

Row | SMILES | P2X7 response (% of control) (screen for PAM activity) | P2X7 response (% of control) [2] | other results
19 | O=C(O[C@@H]1Cc2c(O)cc(O)cc2O[C@@H]1c1ccc(O)c(O)c1)c1cc(O)c(O)c(O)c1 [ECG, epicatechin gallate] | – | – | IC50 (IC50 value (95% CI)): 4.96 µM
20 | O=c1c(-c2ccc(O)cc2)coc2cc(O)cc(O)c12 [Genistein] | – | – | Effect on YO-PRO-1 uptake at high concentrations: reduction of YO-PRO-1 uptake in hP2X7 cells at high concentrations; IC50 (IC50 value (95% CI)): 49.7 µM
21 | COc1ccc2c(c1OC)CN1CCc3cc4c(cc3[C@@H]1C2)OCO4 [Hydroberberine] | – | 9.75 % of control | –
22 | CC(=O)OC(C)C1C2=C(C(=O)C[C@]1(C)O)C(=O)c1c(ccc(-c3ccc4c(c3O)C(=O)C3=C(C4=O)C(C(C)OC(C)=O)[C@@](C)(O)CC3=O)c1O)C2=O (some centres unmarked) [Julimycin II] | 180.28 % of control | – | –
23 | O=c1c(O)c(-c2ccc(O)cc2)oc2cc(O)cc(O)c12 [Kampferol, kaempferol] | – | – | IC50 [1]: 40 µM
24 | CCCCC[C@@H](O)[C@H]1C(=O)O[C@H](C)[C@@H](O)/C=C/C=C/C=C/C=C/C=C(\C)[C@@H](O)[C@H](O)[C@H](O)C[C@H](O)C[C@H](O)C[C@H](O)C[C@H](O)C[C@@H]1O [Lagosin] | 148.84 % of control | – | –
25 | CC(=O)CCC(=O)O [Levullinic acid] | 134.82 % of control | – | –
26 | Nc1ncnc2c1ncn2C1OCC(O)C1O (centres unmarked) [MLS003170979] | 129.73 % of control | – | –
27 | CCCn1cc2c3c(cccc31)[C@H]1C[C@@H](C)CN(C)[C@@H]1C2.O=C(O)C(O)C(O)C(=O)O [NSC332294] | – | 29.09 % of control | –
28 | COc1c(OC)c2c3c(nccc3c1OC)C(=O)c1cc(O)ccc1-2 [NSC785143] | 149.00 % of control | – | –
29 | c1cc2c(c3c1C[C@@H]1NCCc4cc5c(c-3c41)OCO5)OCO2 [NSC785157] | 152.97 % of control | – | –
30 | COc1cc2c(cc1O)C[C@H]1c3c(cc(OC)c(O)c3-2)CCN1C [NSC785158] | – | 49.59 % of control | –
31 | COc1cc2c3c(c1O)-c1cc(O)ccc1C[C@H]3N(C)CC2 [NSC785167] | 125.18 % of control | – | –
32 | COc1cc2c3c(c1O)Oc1ccc(cc1)C[C@@H]1c4c(cc(OC)c(OC)c4Oc4ccc(cc4)C[C@@H]3N(C)CC2)CCN1C [NSC785173] | 148.84 % of control | – | –
33 | COc1cc2c3c(c1O)-c1cc(N(Cc4ccccc4)Cc4ccccc4)ccc1CC3N(C)CC2 (centres unmarked) [NSC785176] | 159.37 % of control | – | –
34 | COc1cc2c3c(c1O)-c1cc(O)ccc1CC3N(C)CC2 (centres unmarked) [NSC785186] | 146.91 % of control | – | –
35 | COc1ccc2c(c1OC)-c1c(OC)c(OC)cc3c1[C@H](C2)NCC3 [NSC785187] | 127.21 % of control | – | –
36 | COC1C(C)OC(OC2CC(C)(O)Cc3cc4c(c(O)c32)C(=O)c2c(O)cc3c(c2C4=O)OC2OC3(C)C(O)C(N(C)C)C2O)C(OC)C1(C)OC (centres unmarked) [Nogamycin] | 155.77 % of control | – | –
